# Test results from patent US20230137092A1, “Composition and Method for the Treatment and Prevention of Cardiac, Pulmonary, Dermal, and Renal Fibrosis” (EMERALD HEALTH PHARMACEUTICALS INC., priority 2020, published 2023).
# Key:
# [1] = system: Ang II-induced cardiac fibrosis; experiment: Ang II-induced cardiac fibrosis, preventive model: collagen by Sirius red/fast green in left ventricle; assay type: in vivo, mouse; settings: vs Ang II group
# Method: Ang II causes myocardial fibrosis in a short period of time (Sopel M et al., 2011, Lab. Invest., 91:565-578) characterized by collagen accumulation and after 14 days of Ang II infusion (Sigusch H H et al., 1996, Cardiovascular Research, 31:546-554). […] Subcutaneous infusion of Ang II using ALZET® osmotic pumps was used to study compound preventive effects. ALZET® osmotic minipumps (Model #2004, Charles Rives, Barcelona, Spain) delivering of Ang II (1.0 mg kg^− min^−) (Sigma-Aldrich, Madrid, Spain) for two weeks. Compound treatment was daily administered in parallel, one day before of the implantation of the subcutaneous pump, beneath the mid scapular loose skin and consisted of daily oral gavage of compound (20 mg/kg) or vehicle (Corn Oil/Maisine CC, 1/1). Mice were acclimated to manipulators for a week previously to the experiments in order to reduce stress and allow the detection of subtle changes in behavior by researchers. […]
# Interstitial heart fibrosis was determined by the measurement of Sirius red/fast green staining (collagen content) (FIG. 1A). […]
# Mice treated with Ang II presented an increase in the thickness of aortic media layer by collagen accumulation. […] Three-four random fields of each heart were photographed by standard brightfield microscopy and digitalized using a Leica DFC420c camera and analyzed using Fiji software (rsb.info.nih.gov/ij/).
# [2] = system: E2F pathway; experiment: RNA-Seq of myocardial tissue with GSEA of MSigDb hallmarks, Ang II preventive model; assay type: in vivo, mouse; settings: cardiac RNA; Ang II-challenged mice; n=3 each group
# Method: RNA seq analysis from RNA extracted of myocardial tissue was performed. Transcriptome libraries were constructed with TruSeq Illumina TruSeq mRNA Sample Prep v2 kit (#RS-122-2001). In brief, 300 ng of RNA from each sample was used to construct a cDNA library, followed by sequencing on the Illumina Hiseq 2500 with single end 50 bp reads and ˜30 million reads per sample.
# RNA-Seq reads were pre-processed with fastp (v0.20.0) and aligned to mouse genome assembly grcm38 using HISAT2 (v2.1.0). Then, counts per gene were obtained with featureCounts (v1.6.1) and normalization and differential expression analyses were carried out using edgeR (v3.26.8), excluding those genes with less than 15 counts across all samples. Finally, the functional analysis was performed using the functional categories defined by MSigDb hallmarks for Mus musculus (V7.0) and the clusterProfiler package (v3.12.0).
# The results confirmed the hallmarks that were enriched in the Ang II group versus control group were pathways related to fibrotic response; this was the case of IFN-α and IFN-γ response, TNF-α signaling via NF-KB, Epithelial Mesenchymal Transition and inflammatory responses, including IL6 JAK STAT Signaling (FIG. 6). The results were obtained after carrying out the functional analysis of the transcriptomic signatures in heart tissue. […]
# [3] = system: Ang II-induced pulmonary fibrosis; experiment: Ang II therapeutic model: lung fibrosis, Masson's trichrome, Ashcroft score; assay type: in vivo, mouse; settings: Ang II four weeks, 20 mg/kg oral last two weeks, ###p<0.001 versus Ang II group
# Method: Lung fibrosis was induced in mice by infusion of Ang II (500 ng kg^− min^−) for four weeks. The treatment with the compound of Formula (VIII) by oral gavage was the same as describe in Example 9. After two weeks of treatment, the mice were sacrificed under ether anesthesia. Lung samples were collected and fixed in 4% paraformaldehyde and embedded in paraffin. The paraffin sections (5 μm) were stained with Masson's trichrome (Merck Millipore, Darmstadt, Germany) for evaluation of fibrosis. Three-four random fields of each lung biopsy were photographed, digitalized using a Leica DFC420c camera and analyzed using Image J software in a blinded manner by two independent observers. The Ashcroft score was used to determine the degree of fibrosis in lung specimens as previously described (Ashcroft T et al., 1988, Clin. Pathol., 41:467-470; Hubner R H et al., 2008, Biotechniques, 44:507-511). Subcutaneous Ang II infusion induced pulmonary fibrosis which is prevented with compound (FIG. 15).
# [4] = system: ERK1+2; experiment: Ang II-induced ERK1+2 phosphorylation in hICF, immunoblot; assay type: cell-based, human; settings: hICF preincubated with compound, Ang II for 30 minutes
# Method: The effect of compound of Formula (VIII) on Ang II signaling pathways in hICF was investigated. ERK1+2 and NFAT activation are two pathways activated by Ang-II (Wakatsuki et al., 2004, Trends Biochem Sci, 29:609-617). hICF were preincubated with compound of Formula (VIII), treated with Ang II for 30 minutes, washed with PBS and proteins extracted in 50 μL of lysis buffer (50 mM Tris-HCl pH 7.5, 150 mM NaCl, 1% (v/v) NP-40, 10% (v/v) glycerol, 10 mM NaF, 1 mM Na3VO4, aprotinin (10 μg/ml), leupeptine (10 μg/ml), pepstatin (1 μg/ml) and 1 mM PMSF saturated). Separated proteins in 10% SDS/PAGE gels were transferred to PVDF membranes and blocked in TBS solution containing 0.1% Tween 20 and 5% bovine serum albumin (BSA) for 1 hour at room temperature. Immunodetection of specific proteins was carried out by incubation with primary antibodies against p-ERK (1:1000; #4695 Cell Signaling Technology) and ERK (1:1000, M5670, Sigma). Membranes were incubated with horseradish peroxidase-conjugated secondary antibody was added and proteins detected by chemiluminescence system (GE Healthcare Europe GmbH). Compound of Formula (VIII) inhibited Ang II-induced ERK1+2 phosphorylation (FIG. 16B).
compound,measurement,setting,value
C=C(C)C1CCC(C)=C[C@H]1C1=C(O)C(=O)C(CCCCC)=C(NCc2ccccc2)C1=O (some centres unmarked) [Formula (VIII)],collagen content accumulation on interstitial area of left ventricle,"[1]; Ang II 1.0 mg kg^- min^- two weeks, 20 mg/kg daily oral gavage",significantly (p<0.001) reduced
same,perivascular collagen content (perivascular myocardial area),"[1]; Ang II two weeks, 20 mg/kg oral",significant reduction
same,expression of a set of genes of E2F pathway (RNA-Seq),[2],clearly downregulated
same,lung fibrosis (Ashcroft score),[3],reduced
same,Ang II-induced ERK1+2 phosphorylation,[4],inhibited
